For 24 compounds, Tm shift results are on record in PubChem BioAssay AID384 (SGCOxCompounds, 2006).

Casein kinase I isoform gamma-2 (Homo sapiens), sequence (P78368 whole entry, looked up, canonical isoform): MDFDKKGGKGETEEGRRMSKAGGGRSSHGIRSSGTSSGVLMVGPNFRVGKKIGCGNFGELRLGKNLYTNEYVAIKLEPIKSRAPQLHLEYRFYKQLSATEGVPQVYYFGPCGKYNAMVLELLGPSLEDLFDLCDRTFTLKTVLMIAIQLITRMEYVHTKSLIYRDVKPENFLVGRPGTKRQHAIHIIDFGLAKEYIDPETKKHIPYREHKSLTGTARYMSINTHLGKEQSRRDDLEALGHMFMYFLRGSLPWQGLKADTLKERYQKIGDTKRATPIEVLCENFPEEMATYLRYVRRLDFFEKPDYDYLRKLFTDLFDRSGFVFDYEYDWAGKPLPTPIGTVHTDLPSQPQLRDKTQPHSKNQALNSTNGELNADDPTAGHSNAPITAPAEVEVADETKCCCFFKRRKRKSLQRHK

One assay addresses Casein kinase I isoform gamma-2 (Homo sapiens) (UniProt P78368). As to the kind of experiment: CSNK1G2 binders by thermal stabilization, biophysical, DSF, SYPRO orange, recombinant protein (AID 384). To be noted: at 10 µM, protein 2 µM, buffer 10 mM HEPES, NaCl 100 mM, stronger effect = higher value.
As to `NC1=N/C(=C2/CCNC(=O)c3[nH]c(Br)cc32)C(=O)N1`, the Tm shift is 8.12 Celsius.
As to `COc1cc(/C=C/C(=O)CC(=O)/C=C/c2ccc(O)c(OC)c2)ccc1O`, the Tm shift was 4.92 Celsius.
Regarding `O=c1c(O)c(-c2ccc(O)c(O)c2)oc2cc(O)ccc12`, the Tm shift is 3.19 Celsius.
For `Clc1ccc(Nc2ncc(-c3cn[nH]c3)n3ccnc23)cc1`, the Tm shift was 3.76 Celsius.
For `CCn1cnc2c(Nc3cccc(Cl)c3)nc(N[C@@H]3CCCC[C@@H]3N)nc21`, the Tm shift is 3.79 Celsius.
Consider `CC(C)n1cnc2c(Nc3cccc(Cl)c3)nc(NCCO)nc21`, for which the Tm shift is 5.58 Celsius.
Consider `CC(C)C(CO)Nc1nc(Nc2cccc(Cl)c2)c2ncn(C(C)C)c2n1` (configuration not stated), for which the Tm shift is 4.92 Celsius.
Take `COc1cc(O)c2c(c1)oc(=O)c1c3cc(O)c(O)cc3oc21`: the Tm shift is 5.16 Celsius.
Consider `Nc1ncnc2c1c(I)cn2[C@@H]1O[C@H](CO)C(O)C1O` (some centres not stated), for which the Tm shift is 4.69 Celsius.
As to `O=C1C(=O)C(c2cc(O)c(O)c(O)c2)Oc2cc(O)cc(O)c21` (configuration not stated), the Tm shift was 3.74 Celsius.
On the same count and under the same terms, the value for `O=c1cc(-c2ccc(O)c(O)c2)oc2cc(O)cc(O)c12` was 4.55 Celsius.
Regarding `NC1=N/C(=C2\CCNC(=O)c3[nH]ccc32)C(=O)N1`, the Tm shift was 3.67 Celsius.
Same read-out and setting: to `CCN(CC)CCNC(=O)c1c(C)[nH]c(/C=C2\C(=O)Nc3ccc(Cl)cc32)c1C` belongs 4.06 Celsius.

The assay is the same for the next values; noted with them: at 10 µM, protein 2 µM, buffer 10 mM HEPES, pH 7.5, NaCl 150 mM, stronger effect = higher value.
`NC1=N/C(=C2/CCNC(=O)c3[nH]c(Br)cc32)C(=O)N1`: the Tm shift is 4.4 Celsius.
Turning to `CSc1nc(-c2ccnc(NC(C)c3ccccc3)c2)c(-c2ccc(F)cc2)[nH]1` (configuration not stated), the Tm shift is 3.4 Celsius.
For `COc1ccc(Nc2nc(N)c(C(=O)c3ccc(Cl)cc3)s2)cc1`, the Tm shift was 3.1 Celsius.
In the case of `O=c1c(O)c(-c2ccc(O)c(O)c2)oc2cc(O)cc(O)c12`, the Tm shift is 3.1 Celsius.
Same read-out and setting: the value for `Cc1nc(N)sc1-c1ccnc(Nc2cccc(-n3oo3)c2)n1` was 4 Celsius; that for `CC(C)n1cnc2c(Nc3cccc(Cl)c3)nc(NCCO)nc21` was 4.7 Celsius.
For `O=Nc1c(-c2c(O)[nH]c3ccc(S(O)(O)O)cc23)[nH]c2ccccc12`, the Tm shift is 3.1 Celsius.
Same read-out and setting: to `NC(=O)c1ccc(-c2nc(-c3ccc4c(c3)OCCO4)c(-c3ccccn3)[nH]2)cc1` belongs 4.3 Celsius; to `Nc1nc(Nc2cccc(Cl)c2)sc1C(=O)c1ccc(F)cc1`, 3.4 Celsius.
Consider `Cc1cc(Nc2nc(-c3ccccc3)nc3ccccc23)n[nH]1`, for which the Tm shift is 3.3 Celsius.
The same measure, in the same setting: to `Nc1ncnc2c1c(I)cn2[C@@H]1O[C@H](CO)C(O)C1O` (some centres not stated) belongs 3.3 Celsius; to `COc1ccc(Nc2nc(N)c(C(=O)c3ccc(OC)cc3)s2)cc1`, 4.3 Celsius.
On the same count and under the same terms, to `O=Nc1c(-c2c(O)[nH]c3ccc(I)cc23)[nH]c2ccccc12` belongs 3.6 Celsius.
For `O=c1[nH]c(O)c2c1c1c3ccccc3nc1n1cncc21`, the Tm shift is 3.6 Celsius.
